Reference: patent US20230242871A1, “GENERATION OF PRIMORDIAL GERM CELLS AND METHODS OF USING THE SAME” (The Board of Trustees of the Leland Stanfor Junior …, priority 2020, published 2023)

Tested on: NANOS3-mCherry hESCs
Assay: PGC differentiation of NANOS3-mCherry hESCs, flow cytometry for NANOS3-mCherry fluorescent reporter expression
Assay type: cell-based, human
Conditions: for efficiency upon SCF/EGF subtraction: SCF/EGF subtraction from D0.5-1.5; for efficiency upon SCF/EGF subtraction / effect of absence of SCF and EGF on PGC differentiation / requirement on the D0.5-D1.5 interval: FIG. 5C; for effect of absence of SCF and EGF on PGC differentiation: absence in the same time window (24 hrs at day 2); for requirement on the D0.5-D1.5 interval: posterior epiblast differentiation into PGCs
Source text: In the NANOS3-mCherry hESC line, a 2A-mCherry fluorescent reporter was inserted immediately downstream of the NANOS3 gene without disrupting its coding sequence (Irie et al., 2014). In the SOX17-GFP hESC line, a GFP fluorescent reporter was inserted immediately after the SOX17 start codon, thus functionally invalidating one SOX17 allele (Wang et al., 2011). In the NANOG-2A-YFP hESC line, Cas9 RNP/AAV6-based genome editing (Martin et al., 2019) was used to insert a 2A-iCaspase9-2A-YFP fluorescent reporter immediately downstream of the NANOG gene without disrupting the NANOG coding sequence.
hPSC differentiation into PGCs. Undifferentiated hPSCs were maintained in mTeSR1 + 1% penicillin/streptomycin and enzymatically passaged (Accutase, 1:8-1:12 split) for differentiation. After overnight recovery in mTeSR1 + Thiazovivin (ROCK inhibitor, 5 µM), the following morning, hPSCs were briefly washed (DMEM/F12) and differentiated into posterior epiblast for 12 hours (100 ng/mL Activin + 3 µM CHIR99021 + 10 µM Y-27632) in aRB27 basal media, which comprised Advanced RPMI 1640 medium supplemented with 1% B27 supplement, 0.1 mM non-essential amino acids (NEAA), 100 U/ml Penicillin + 0.1 mg/ml Streptomycin, and 2 mM L-Glutamine (Kobayashi et al., 2017). Subsequently, […], […], […], 100 ng/mL SCF, 50 ng/mL EGF, 1 µM XAV939, and 10 µM Y-27632 for 24 hours (all in aRB27 basal media). For comparison, published PGC differentiation protocols (Sasaki et al., 2015; Kobayashi et al., 2017) were performed as described previously.
Flow cytometry and fluorescence-activated cell sorting (FACS) for cell-surface marker expression. hPSCs or their differentiated derivatives were dissociated using TrypLE Express (Gibco), were washed off the plate with FACS buffer (PBS + 0.1% BSA fraction V [Gibco] + 1 mM EDTA [Gibco] + 1% penicillin/streptomycin [Gibco]) and were pelleted by centrifugation (5 mins, 4° C.). Subsequently, cell pellets were directly resuspended in FACS buffer containing pre-diluted primary antibodies (listed below), thoroughly triturated to ensure a single cell suspension, and primary antibody staining was conducted for 30 mins on ice. Afterwards, cells were washed with an excess of FACS buffer and pelleted again, and this was conducted one more time. Finally, washed cell pellets were resuspended in FACS buffer containing 1.1 µM DAPI (Biolegend), and were strained through a 35 µm filter. Flow cytometry and sorting was conducted on a BD FACSAria II (Stanford Stem Cell Institute FACS Core).

Compound	efficiency upon SCF/EGF subtraction (readout D3.5)	effect of absence of SCF and EGF on PGC differentiation	requirement on the D0.5-D1.5 interval	requirement of LIF for the second differentiation stage (FIG. 5E)	efficiency upon addition of LIF (LIF added during D0.5-3.5, readout D3.5, FIG. 5E)	differentiation of posterior epiblast into PGCs (phase II: 3 days in PGC-specifying media after 12 hours WNT agonist (phase I), FIG. 1F)
EGF: epidermal growth factor, UniProt P01133 (NSDSECPLSHDGYCLHDGVCMYIEALDKYACNCVVGYIGERCQYRDLKWWELR; UniProt P01133 971-1023, looked up)	enhance efficiency	superfluous	dispensable	–	–	–
LIF: LIF, commonly used to enhance PGC survival (Peprotech 300-05)	–	–	–	dispensable	does not improve efficiency	–
SCF: stem cell factor, also known as Kit ligand	enhance efficiency	superfluous	dispensable	–	–	–
O=c1[nH]c(-c2ccc(C(F)(F)F)cc2)nc2c1CSCC2 [XAV939, 3,5,7,8-Tetrahydro-2-[4-(trifluoromethyl)phenyl]-4H-thiopyrano[4,3-d]pyrimidin-4-one, reference compound]	–	–	–	–	–	promotes differentiation of posterior epiblast into PGCs
